Source: patent publication US12070489B2, “Method of treating cancer with a cancer therapy in combination with another therapeutic agent” (Rappaport Family Institute for Research in the Medical …, priority 2018, dated 2024)

Columns and labels:
[1] = test system: IL-6; test: IL-6 quantification in plasma by ELISA after DOX; assay type: in vivo; conditions: naive female BALB/c mice, 240 μg DOX IP, one day after injection
Protocol: For determination of IL-6 expression following DOX treatment, 7 weeks old naïve female BALB/c mice (n=3) were IP injected with 240 μg DOX. Control mice (n=3) were left untreated. One day after the injection, mice were bled by cardiac puncture and blood was collected into EDTA-coated tubes. […] Supernatants (representing the plasma samples) were collected and the level of IL-6 in the plasma was determined by ELISA (IL-6 Quantikine ELISA Kit, R&D systems) according to the manufacturer's instruction.
To investigate the effect of chemotherapy on the level of IL-6 in the circulation, naïve 7-weeks old female BALB/c mice were IP injected with 240 μg DOX (doxorubicin, Adriamycin™) or were left untreated (control mice). One day after the injection, the level of IL-6 in the plasma was determined by ELISA.

[2] = test system: circulating factors; test: Mouse L308 Array screen of plasma from naive mice treated with FOLFOX or Paclitaxel chemotherapy; assay type: in vivo; conditions: circulating level, BALB/c mice
Protocol: Determination of proteins expression using protein arrays was performed according to the manufacturer's instructions.
To identify host-derived circulating factors whose levels change in response to chemotherapy, a protein array-based screens were performed using plasma from naïve (non-tumor bearing) mice that were treated with different chemotherapy types. The use of naïve mice allows identification of factors specifically generated by the host in response to chemotherapy, independent of tumor presence. […] Control mice (n=5) were injected with vehicle control. Twenty-four hours after treatment administration, mice were sacrificed, plasma was isolated and pooled per group. […] These factors, and their respective fold changes in response to each chemotherapy type (Paclitaxel™, FOLFOX™), are listed in Table 5.

With `COc1cccc2c1C(=O)c1c(O)c3c(c(O)c1C2=O)C[C@@](O)(C(=O)CO)C[C@@H]3O[C@H]1C[C@H](N)[C@H](O)[C@H](C)O1` [DOX, doxorubicin] the “increase of plasma level of IL-6 compared to control” value [1] was 22 fold.

In the case of `CC(=O)O[C@H]1C(=O)[C@@]2(C)[C@H]([C@H](OC(=O)c3ccccc3)[C@]3(O)C[C@H](OC(=O)[C@H](O)[C@@H](NC(=O)c4ccccc4)c4ccccc4)C(C)=C1C3(C)C)[C@]1(OC(C)=O)CO[C@@H]1C[C@@H]2O` [Paclitaxel, paclitaxel], the “Fold change CRG-2 (chemotherapy-treated vs control)” value [2] is reported as >10 fold, the “Fold change CRP (chemotherapy-treated vs control)” value [2] is reported as >10 fold and the “Fold change CXCL14/BRAK (chemotherapy-treated vs control)” value [2] is reported as 2.6 fold. The “Fold change CXCL16 (chemotherapy-treated vs control)” value [2] was 4.4 fold, the “Fold change CXCR2/IL-8 RB (chemotherapy-treated vs control)” value [2] was 2.0 fold and the “Fold change CXCR6 (chemotherapy-treated vs control)” value [2] was 3.6 fold. The “Fold change Cardiotrophin-1 (chemotherapy-treated vs control)” value [2] was >10 fold, the “Fold change Cripto (chemotherapy-treated vs control)” value [2] was >10 fold and the “Fold change Dkk-3 (chemotherapy-treated vs control)” value [2] was >10 fold. For the same compound, the “Fold change Endocan (chemotherapy-treated vs control)” value [2] was 4.4 fold, the “Fold change Endostatin (chemotherapy-treated vs control)” value [2] was 4.9 fold and the “Fold change Eotaxin-2 (chemotherapy-treated vs control)” value [2] was 3.4 fold. For the same compound, the “Fold change Erythropoietin (EPO) (chemotherapy-treated vs control)” value [2] was 3.9 fold, the “Fold change Frizzled-6 (chemotherapy-treated vs control)” value [2] was 2.2 fold and the “Fold change Frizzled-7 (chemotherapy-treated vs control)” value [2] was 6.1 fold. For the same compound, the “Fold change GITR (chemotherapy-treated vs control)” value [2] was >10 fold, the “Fold change GM-CSF (chemotherapy-treated vs control)” value [2] was 2.4 fold and the “Fold change IGFBP-1 (chemotherapy-treated vs control)” value [2] was >10 fold. For the same compound, the “Fold change IL-1 R4/ST2 (chemotherapy-treated vs control)” value [2] was 1.9 fold, the “Fold change IL-1 alpha (chemotherapy-treated vs control)” value [2] was >10 fold and the “Fold change IL-3 R alpha (chemotherapy-treated vs control)” value [2] was >10 fold. For the same compound, the “Fold change IL-7 R alpha (chemotherapy-treated vs control)” value [2] was 8.8 fold, the “Fold change IL-9 R (chemotherapy-treated vs control)” value [2] was 5.7 fold and the “Fold change IL-12 p70 (chemotherapy-treated vs control)” value [2] was >10 fold. The “Fold change IL-15 (chemotherapy-treated vs control)” value [2] was 2.5 fold, the “Fold change IL-15 R alpha (chemotherapy-treated vs control)” value [2] was 3.4 fold and the “Fold change IL-17R (chemotherapy-treated vs control)” value [2] was 2.6 fold. For the same compound, the “Fold change IL-18 R alpha/IL-1 R5 (chemotherapy-treated vs control)” value [2] was >10 fold, the “Fold change IL-20 (chemotherapy-treated vs control)” value [2] was >10 fold and the “Fold change IL-23 R (chemotherapy-treated vs control)” value [2] was 1.8 fold. The “Fold change IL-27 (chemotherapy-treated vs control)” value [2] was 2.0 fold, the “Fold change IL-28/IFN-lambda (chemotherapy-treated vs control)” value [2] was 5.4 fold and the “Fold change IL-31 (chemotherapy-treated vs control)” value [2] was >10 fold. For the same compound, the “Fold change LIF (chemotherapy-treated vs control)” value [2] was >10 fold, the “Fold change LIX (chemotherapy-treated vs control)” value [2] was >10 fold and the “Fold change LRP-6 (chemotherapy-treated vs control)” value [2] was >10 fold. For the same compound, the “Fold change Lungkine (chemotherapy-treated vs control)” value [2] was 2.0 fold, the “Fold change Lymphotoxin beta R/TNFRSF3 (chemotherapy-treated vs control)” value [2] was 1.6 fold and the “Fold change M-CSF (chemotherapy-treated vs control)” value [2] was 1.8 fold. The “Fold change MAdCAM-1 (chemotherapy-treated vs control)” value [2] was >10 fold, the “Fold change MCP-1 (chemotherapy-treated vs control)” value [2] was >10 fold and the “Fold change MIP-1 gamma (chemotherapy-treated vs control)” value [2] was >10 fold. For the same compound, the “Fold change MIP-2 (chemotherapy-treated vs control)” value [2] was 3.1 fold, the “Fold change MMP-9 (chemotherapy-treated vs control)” value [2] was 4.3 fold and the “Fold change P-Selectin (chemotherapy-treated vs control)” value [2] was >10 fold. For the same compound, the “Fold change PF-4 (chemotherapy-treated vs control)” value [2] was 3.6 fold, the “Fold change Prolactin (chemotherapy-treated vs control)” value [2] was 4.1 fold and the “Fold change SDF-1 (chemotherapy-treated vs control)” value [2] was >10 fold. The “Fold change Soggy-1 (chemotherapy-treated vs control)” value [2] was 3.6 fold, the “Fold change TACI/TNFRSF13B (chemotherapy-treated vs control)” value [2] was >10 fold and the “Fold change TARC (chemotherapy-treated vs control)” value [2] was >10 fold. For the same compound, the “Fold change TCA-3 (chemotherapy-treated vs control)” value [2] was 3.0 fold, the “Fold change TGF-beta 2 (chemotherapy-treated vs control)” value [2] was 3.4 fold and the “Fold change TGF-beta RII (chemotherapy-treated vs control)” value [2] was 2.2 fold. For the same compound, the “Fold change TNF-alpha (chemotherapy-treated vs control)” value [2] was 2.8 fold, the “Fold change TNF-beta/TNFSF1B (chemotherapy-treated vs control)” value [2] was 2.9 fold and the “Fold change TPO (chemotherapy-treated vs control)” value [2] was >10 fold. For the same compound, the “Fold change TWEAK R/TNFRSF12 (chemotherapy-treated vs control)” value [2] was >10 fold, the “Fold change Thrombospondin (chemotherapy-treated vs control)” value [2] was >10 fold and the “Fold change Thymus Chemokine-1 (chemotherapy-treated vs control)” value [2] was >10 fold. The “Fold change VEGFC (chemotherapy-treated vs control)” value [2] was >10 fold and the “Fold change WISP-1/CCN4 (chemotherapy-treated vs control)” value [2] was 3.7 fold.
